The NIST ThermoML archive (doi:10.1016/j.jct.2009.02.008)
Where “and” joins values, the source holds several entries; their conditions need not be identical. Equal entries are not always repeated. ± gives the expanded uncertainty stated by the source.

Legend:
[1] = Molar enthalpy of transition or fusion; conditions: Crystal; DSC
[2] = for vapor or sublimation pressure: Torsion effusion method

O=C(O)c1ccc([N+](=O)[O-])cc1[N+](=O)[O-] [2,4-dinitrobenzoic acid]
Conditions | Molar enthalpy of transition or fusion [kcal/mol]
[1] | 7.31 ± 0.454

[2]
Conditions | Normal melting temperature [°C] | vapor or sublimation pressure
363.5 K, Crystal | – | 3e-05 ± 6e-06 kPa
370 K, Crystal | – | 6e-05 ± 8e-06 kPa
373 K, Crystal | – | 9e-05 ± 1.2e-05 kPa
375 K, Crystal | – | 0.000105 ± 1.9e-05 kPa
377 K, Crystal | – | 0.00015 ± 2.8e-05 kPa
377.5 K, Crystal | – | 0.00015 ± 2.8e-05 kPa
379 K, Crystal | – | 0.000195 ± 3.2e-05 kPa
381 K, Crystal | – | 0.00024 ± 3e-05 kPa
381.5 K, Crystal | – | 0.00024 ± 3e-05 kPa
385 K, Crystal | – | 0.00033 ± 4.9e-05 kPa
388.5 K, Crystal | – | 0.000511 ± 6e-05 kPa and 0.000541 ± 6.2e-05 kPa
389 K, Crystal | – | 0.00048 ± 5.8e-05 kPa and 0.000541 ± 6.2e-05 kPa
391 K, Crystal | – | 0.000601 ± 9.5e-05 kPa and 0.000631 ± 9.6e-05 kPa and 0.000691 ± 9.7e-05 kPa
393 K, Crystal | – | 0.000781 ± 0.00013 kPa
393.5 K, Crystal | – | 0.000901 ± 0.00013 kPa
394 K, Crystal | – | 0.000871 ± 0.00013 kPa
396.5 K, Crystal | – | 0.001141 ± 0.00013 kPa
397 K, Crystal | – | 0.001141 ± 0.00013 kPa
399 K, Crystal | – | 0.001351 ± 0.00023 kPa and 0.001502 ± 0.00023 kPa
399.5 K, Crystal | – | 0.001622 ± 0.00023 kPa
400 K, Crystal | – | 0.001622 ± 0.00023 kPa
401.5 K, Crystal | – | 0.001952 ± 0.00028 kPa
402 K, Crystal | – | 0.001862 ± 0.00017 kPa
402.5 K, Crystal | – | 0.001922 ± 0.00017 kPa
494.3 K, Liquid | – | 0.85 ± 0.048 kPa
494.4 K, Liquid | – | 0.85 ± 0.052 kPa
494.5 K, Liquid | – | 0.851 ± 0.05 kPa
494.7 K, Liquid | – | 0.85 ± 0.059 kPa
495.6 K, Liquid | – | 0.874 ± 0.059 kPa
495.7 K, Liquid | – | 0.883 ± 0.059 kPa
495.8 K, Liquid | – | 0.879 ± 0.06 kPa
495.9 K, Liquid | – | 0.884 ± 0.06 kPa
500.6 K, Liquid | – | 1.05 ± 0.081 kPa and 1.065 ± 0.081 kPa
500.8 K, Liquid | – | 1.051 ± 0.081 kPa and 1.058 ± 0.081 kPa
501.1 K, Liquid | – | 1.047 ± 0.081 kPa
501.2 K, Liquid | – | 1.016 ± 0.15 kPa and 1.046 ± 0.081 kPa and 1.048 ± 0.081 kPa
501.5 K, Liquid | – | 1.06 ± 0.081 kPa
502.4 K, Liquid | – | 1.13 ± 0.071 kPa
503.2 K, Liquid | – | 1.259 ± 0.11 kPa
504.4 K, Liquid | – | 1.202 ± 0.08 kPa
505.3 K, Liquid | – | 1.309 ± 0.068 kPa
506.2 K, Liquid | – | 1.299 ± 0.11 kPa
507.1 K, Liquid | – | 1.451 ± 0.09 kPa
507.2 K, Liquid | – | 1.464 ± 0.086 kPa
507.4 K, Liquid | – | 1.458 ± 0.12 kPa
507.5 K, Liquid | – | 1.475 ± 0.12 kPa
508.1 K, Liquid | – | 1.511 ± 0.12 kPa
508.2 K, Liquid | – | 1.484 ± 0.12 kPa and 1.513 ± 0.12 kPa
508.3 K, Liquid | – | 1.516 ± 0.12 kPa
508.5 K, Liquid | – | 1.513 ± 0.15 kPa
510.3 K, Liquid | – | 1.607 ± 0.12 kPa
511.4 K, Liquid | – | 1.647 ± 0.099 kPa
511.5 K, Liquid | – | 1.909 ± 0.13 kPa
512.3 K, Liquid | – | 1.785 ± 0.12 kPa
512.8 K, Liquid | – | 1.798 ± 0.13 kPa and 1.814 ± 0.13 kPa and 1.816 ± 0.13 kPa
512.9 K, Liquid | – | 1.849 ± 0.13 kPa [middle of 4 runs]
513 K, Liquid | – | 1.814 ± 0.13 kPa
513.2 K, Liquid | – | 1.704 ± 0.14 kPa
514.4 K, Liquid | – | 1.9 ± 0.11 kPa
515.2 K, Liquid | – | 1.995 ± 0.18 kPa
516.4 K, Liquid | – | 1.952 ± 0.13 kPa
517.2 K, Liquid | – | 2.293 ± 0.16 kPa and 2.389 ± 0.16 kPa and 2.212 ± 0.16 kPa
517.3 K, Liquid | – | 2.207 ± 0.12 kPa and 2.212 ± 0.16 kPa
518.4 K, Liquid | – | 2.196 ± 0.2 kPa
519.3 K, Liquid | – | 2.153 ± 0.14 kPa
520.2 K, Liquid | – | 2.466 ± 0.15 kPa
521.4 K, Liquid | – | 2.522 ± 0.23 kPa
522.3 K, Liquid | – | 2.494 ± 0.2 kPa
523 K, Liquid | – | 2.741 ± 0.19 kPa
523.1 K, Liquid | – | 2.703 ± 0.19 kPa and 2.754 ± 0.19 kPa
523.2 K, Liquid | – | 2.768 ± 0.19 kPa
523.3 K, Liquid | – | 2.731 ± 0.19 kPa
524.3 K, Liquid | – | 2.997 ± 0.23 kPa
526.3 K, Liquid | – | 3.049 ± 0.21 kPa
527.2 K, Liquid | – | 3.107 ± 0.17 kPa
528.4 K, Liquid | – | 3.467 ± 0.3 kPa
528.9 K, Liquid | – | 3.528 ± 0.23 kPa and 3.623 ± 0.24 kPa and 3.453 ± 0.23 kPa
529 K, Liquid | – | 3.447 ± 0.23 kPa
529.2 K, Liquid | – | 3.297 ± 0.28 kPa
530.4 K, Liquid | – | 3.895 ± 0.22 kPa
531.2 K, Liquid | – | 3.694 ± 0.22 kPa
531.3 K, Liquid | – | 3.86 ± 0.32 kPa and 3.894 ± 0.22 kPa
531.4 K, Liquid | – | 3.865 ± 0.22 kPa
531.5 K, Liquid | – | 3.847 ± 0.22 kPa
532.2 K, Liquid | – | 3.786 ± 0.23 kPa
533.4 K, Liquid | – | 4.205 ± 0.3 kPa
534.2 K, Liquid | – | 4.308 ± 0.33 kPa and 3.936 ± 0.24 kPa and 4.141 ± 0.25 kPa
534.4 K, Liquid | – | 4.173 ± 0.25 kPa and 4.085 ± 0.24 kPa
535.4 K, Liquid | – | 4.593 ± 0.28 kPa
536.3 K, Liquid | – | 4.615 ± 0.29 kPa
537.3 K, Liquid | – | 4.715 ± 0.27 kPa and 4.48 ± 0.34 kPa
537.4 K, Liquid | – | 4.808 ± 0.36 kPa and 4.815 ± 0.36 kPa
537.5 K, Liquid | – | 4.648 ± 0.35 kPa
538.2 K, Liquid | – | 4.909 ± 0.28 kPa
539.2 K, Liquid | – | 5.258 ± 0.51 kPa and 5.485 ± 0.65 kPa and 5.433 ± 0.62 kPa
539.3 K, Liquid | – | 5.693 ± 0.75 kPa
539.4 K, Liquid | – | 4.999 ± 0.37 kPa
540.3 K, Liquid | – | 5.053 ± 0.33 kPa
541.2 K, Liquid | – | 5.592 ± 0.37 kPa
543.3 K, Liquid | – | 5.789 ± 0.31 kPa
544.2 K, Liquid | – | 5.62 ± 0.28 kPa
Crystal, DTA | 182.7 ± 1.3 | –
